Experiments:
blackgrass [1] = assay: Test A preemergence; type: in vivo, Alopecurus myosuroides
How it was run: (§1)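 Greenhouse pot test, 10 days. Compound (non-phytotoxic solvent, surfactant) sprayed on soil at seeding or on seedlings at one- to two-leaf stage. Visual injury rated 0–100 against untreated plants.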

corn [2] = assay: Test A preemergence; type: in vivo, Zea mays
How it was run: as §1

foxtail, giant [3] = assay: Test A preemergence; type: in vivo, Setaria faberi
How it was run: as §1

goosegrass [4] = assay: Test A preemergence; type: in vivo, Eleusine indica
How it was run: as §1

kochia [5] = assay: Test A preemergence; type: in vivo, Bassia scoparia
How it was run: as §1

oat, wild [6] = assay: Test A preemergence; type: in vivo, Avena fatua
How it was run: as §1

pigweed, palmer [7] = assay: Test A preemergence; type: in vivo, Amaranthus palmeri
How it was run: as §1

ragweed [8] = assay: Test A preemergence; type: in vivo, Ambrosia artemisiifolia
How it was run: as §1

ryegrass, Italian [9] = assay: Test A preemergence; type: in vivo, Lolium multiflorum
How it was run: as §1

soybean [10] = assay: Test A preemergence; type: in vivo, Glycine max
How it was run: as §1

wheat [11] = assay: Test A preemergence; type: in vivo, Triticum aestivum
How it was run: as §1

blackgrass [12] = assay: Test A postemergence; type: in vivo, Alopecurus myosuroides
How it was run: as §1

corn [13] = assay: Test A postemergence; type: in vivo, Zea mays; conditions: postemergence, 10 days, visual injury, 0 to 100 scale (0 no effect, 100 complete control)
How it was run: as §1

foxtail, giant [14] = assay: Test A postemergence; type: in vivo, Setaria faberi; conditions: postemergence, 10 days, visual injury, 0 to 100 scale (0 no effect, 100 complete control)
How it was run: as §1

goosegrass [15] = assay: Test A postemergence; type: in vivo, Eleusine indica; conditions: postemergence, 10 days, visual injury, 0 to 100 scale (0 no effect, 100 complete control)
How it was run: as §1

kochia [16] = assay: Test A postemergence; type: in vivo, Bassia scoparia; conditions: postemergence, 10 days, visual injury, 0 to 100 scale (0 no effect, 100 complete control)
How it was run: as §1

oat, wild [17] = assay: Test A postemergence; type: in vivo, Avena fatua; conditions: 500 g ai/ha, postemergence, 10 days, visual injury, 0 to 100 scale (0 no effect, 100 complete control)
How it was run: as §1

pigweed, palmer [18] = assay: Test A postemergence; type: in vivo, Amaranthus palmeri; conditions: 500 g ai/ha, postemergence, 10 days, visual injury, 0 to 100 scale (0 no effect, 100 complete control)
How it was run: as §1

ragweed [19] = assay: Test A postemergence; type: in vivo, Ambrosia artemisiifolia; conditions: 500 g ai/ha, postemergence, 10 days, visual injury, 0 to 100 scale (0 no effect, 100 complete control)
How it was run: as §1

ryegrass, Italian [20] = assay: Test A postemergence; type: in vivo, Lolium multiflorum; conditions: 500 g ai/ha, postemergence, 10 days, visual injury, 0 to 100 scale (0 no effect, 100 complete control)
How it was run: as §1

soybean [21] = assay: Test A postemergence; type: in vivo, Glycine max; conditions: 500 g ai/ha, postemergence, 10 days, visual injury, 0 to 100 scale (0 no effect, 100 complete control)
How it was run: as §1

wheat [22] = assay: Test A postemergence; type: in vivo, Triticum aestivum; conditions: 500 g ai/ha, postemergence, 10 days, visual injury, 0 to 100 scale (0 no effect, 100 complete control)
How it was run: as §1

galium = assay: Test A postemergence; type: in vivo, Galium aparine; conditions: postemergence, 10 days, visual injury, 0 to 100 scale (0 no effect, 100 complete control)
How it was run: as §1

horseweed = assay: Test A postemergence; type: in vivo, Erigeron canadensis; conditions: postemergence, 10 days, visual injury, 0 to 100 scale (0 no effect, 100 complete control)
How it was run: as §1

barnyardgrass = assay: Test B flooded paddy test; type: in vivo, Echinochloa crus-galli; conditions: 250 g ai/ha, Flood, 13 days, 0 to 100 scale (0 no effect, 100 complete control)
How it was run: (§2)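 Plants at the 2-leaf stage were flooded to 3 cm above the soil, and test compounds were applied directly into the paddy water, with that depth held throughout. After 13 days in a greenhouse, injury was rated visually against untreated controls on a 0–100 scale (100 = complete control).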

ducksalad = assay: Test B flooded paddy test; type: in vivo, Heteranthera limosa; conditions: 250 g ai/ha, Flood, 13 days, 0 to 100 scale (0 no effect, 100 complete control)
How it was run: as §2

rice = assay: Test B flooded paddy test; type: in vivo, Oryza sativa; conditions: 250 g ai/ha, Flood, 13 days, 0 to 100 scale (0 no effect, 100 complete control)
How it was run: as §2

sedge, umbrella = assay: Test B flooded paddy test; type: in vivo, Cyperus difformis; conditions: 250 g ai/ha, Flood, 13 days, 0 to 100 scale (0 no effect, 100 complete control)
How it was run: as §2

[23] = 125 g ai/ha, visual injury after 10 days, 0 to 100 scale, 0 is no effect, 100 is complete control
[24] = 500 g ai/ha, 0 to 100 scale (0 no effect, 100 complete control), 10 days

CCCc1ncn(-c2cccc(C(=O)N3C[C@H](C)Oc4c(C)cccc43)c2)n1 [Compound 72]
Plant response rating, Blackgrass (blackgrass [1]; [23]): 40 | Plant response rating, Blackgrass (blackgrass [1]; [24]): 70 | Plant response rating, Corn (corn [2]; [23]): 30 | Plant response rating, Corn (corn [2]; [24]): 50 | Plant response rating, Foxtail, Giant (foxtail, giant [3]; [23]): 100 | Plant response rating, Foxtail, Giant (foxtail, giant [3]; [24]): 100 | Plant response rating, Goosegrass (goosegrass [4]; [23]): 90 | Plant response rating, Goosegrass (goosegrass [4]; [24]): 100 | Plant response rating, Kochia (kochia [5]; [23]): 30 | Plant response rating, Kochia (kochia [5]; [24]): 80 | Plant response rating, Oat, Wild (oat, wild [6]; [23]): 10 | Plant response rating, Oat, Wild (oat, wild [6]; [24]): 90 | Plant response rating, Pigweed, Palmer (pigweed, palmer [7]; [23]): 70 | Plant response rating, Pigweed, Palmer (pigweed, palmer [7]; [24]): 100 | Plant response rating, Ragweed (ragweed [8]; [23]): 0 | Plant response rating, Ragweed (ragweed [8]; [24]): 0 | Plant response rating, Ryegrass, Italian (ryegrass, Italian [9]; [23]): 100 | Plant response rating, Ryegrass, Italian (ryegrass, Italian [9]; [24]): 100 | Plant response rating, Soybean (soybean [10]; [23]): 30 | Plant response rating, Soybean (soybean [10]; [24]): 60 | Plant response rating, Wheat (wheat [11]; [23]): 0 | Plant response rating, Wheat (wheat [11]; [24]): 30 | Plant response rating, Blackgrass (blackgrass [12]; 125 g ai/ha, postemergence, 10 days, visual injury, 0 to 100 scale (0 no effect, 100 complete control)): 0 | Plant response rating, Blackgrass (blackgrass [12]; 500 g ai/ha, Postemergence, 0 to 100 scale): 80 | Plant response rating, Corn (corn [13]; 125 g ai/ha): 30 | Plant response rating, Corn (corn [13]; 500 g ai/ha): 90 | Plant response rating, Foxtail, Giant (foxtail, giant [14]; 125 g ai/ha): 10 | Plant response rating, Foxtail, Giant (foxtail, giant [14]; 500 g ai/ha): 50 | Plant response rating, Goosegrass (goosegrass [15]; 125 g ai/ha): 50 | Plant response rating, Goosegrass (goosegrass [15]; 500 g ai/ha): 90 | Plant response rating, Kochia (kochia [16]; 125 g ai/ha): 70 | Plant response rating, Kochia (kochia [16]; 500 g ai/ha): 90 | Plant response rating, Oat, Wild (oat, wild [17]): 50 | Plant response rating, Pigweed, Palmer (pigweed, palmer [18]): 70 | Plant response rating, Ragweed (ragweed [19]): 50 | Plant response rating, Ryegrass, Italian (ryegrass, Italian [20]): 70 | Plant response rating, Soybean (soybean [21]): 100 | Plant response rating, Wheat (wheat [22]): 30 | Plant response rating, Galium (galium; 125 g ai/ha): 70 | Plant response rating, Galium (galium; 500 g ai/ha): 100 | Plant response rating, Horseweed (horseweed; 125 g ai/ha): 20 | Plant response rating, Horseweed (horseweed; 500 g ai/ha): 50 | Plant response rating, Barnyardgrass (barnyardgrass): 15 | Plant response rating, Ducksalad (ducksalad): 55 | Plant response rating, Rice (rice): 0 | Plant response rating, Sedge, Umbrella (sedge, umbrella): 15

Source: patent US20260262643A1, “HERBICIDAL BENZOXAZINES” (FMC CORPORATION, priority 2022, published 2026)
